From the kinase profiling compilation of Christmann-Franck et al. (2016)

What was measured:
Test in all cases: radiometric filter-binding kinase assay, Kinase HotSpot
Details in all cases: compound 0.5 µM; ATP 10 µM
PAK6 (human) = PAK6 (human) (UniProt Q9NQU5)
RPS6KA3 KD1 KD2 (human) = RPS6KA3 KD1 KD2 (human) (UniProt P51812)
KIT (human) = KIT (human) (UniProt P10721)
GRK7 (human) = GRK7 (human) (UniProt Q8WTQ7)
MELK (human) = MELK (human) (UniProt Q14680)
DMPK (human) = DMPK (human) (UniProt Q09013)
MATK (human) = MATK (human) (UniProt P42679)
ALK (human) = ALK (human) (UniProt Q9UM73)
VRK1 (human) = VRK1 (human) (UniProt Q99986)
ZAP70 (human) = ZAP70 (human) (UniProt P43403)
HIPK4 (human) = HIPK4 (human) (UniProt Q8NE63)
CDK6 CCND3 (human) = CDK6 CCND3 (human) (UniProt P30281+Q00534)
EGFR (human) = EGFR (human) (UniProt P00533)
NUAK2 (human) = NUAK2 (human) (UniProt Q9H093)
MKNK2 (human) = MKNK2 (human) (UniProt Q9HBH9)
TAOK3 (human) = TAOK3 (human) (UniProt Q9H2K8)
AURKB (human) = AURKB (human) (UniProt Q96GD4)
SRPK2 (human) = SRPK2 (human) (UniProt P78362)
CDK6 CCND1 (human) = CDK6 CCND1 (human) (UniProt Q00534+P24385)
STK17A (human) = STK17A (human) (UniProt Q9UEE5)
TXK (human) = TXK (human) (UniProt P42681)
CAMK2A (human) = CAMK2A (human) (UniProt Q9UQM7)
MAPK14 (human) = MAPK14 (human) (UniProt Q16539)
PIM1 (human) = PIM1 (human) (UniProt P11309)
AXL (human) = AXL (human) (UniProt P30530)
MYLK (human) = MYLK (human) (UniProt Q15746)
STK3 (human) = STK3 (human) (UniProt Q13188)
PAK4 (human) = PAK4 (human) (UniProt O96013)
PHKG2 (human) = PHKG2 (human) (UniProt P15735)
CHEK2 (human) = CHEK2 (human) (UniProt O96017)
DYRK2 (human) = DYRK2 (human) (UniProt Q92630)
EPHA4 (human) = EPHA4 (human) (UniProt P54764)
CDC42BPA (human) = CDC42BPA (human) (UniProt Q5VT25)
NLK (human) = NLK (human) (UniProt Q9UBE8)
GSG2 (human) = GSG2 (human) (UniProt Q8TF76)
BTK (human) = BTK (human) (UniProt Q06187)
RPS6KB2 (human) = RPS6KB2 (human) (UniProt Q9UBS0)
PKN2 (human) = PKN2 (human) (UniProt Q16513)
ULK1 (human) = ULK1 (human) (UniProt O75385)
CLK2 (human) = CLK2 (human) (UniProt P49760)

Sequence of MYLK (human) (Q15746 whole entry, looked up): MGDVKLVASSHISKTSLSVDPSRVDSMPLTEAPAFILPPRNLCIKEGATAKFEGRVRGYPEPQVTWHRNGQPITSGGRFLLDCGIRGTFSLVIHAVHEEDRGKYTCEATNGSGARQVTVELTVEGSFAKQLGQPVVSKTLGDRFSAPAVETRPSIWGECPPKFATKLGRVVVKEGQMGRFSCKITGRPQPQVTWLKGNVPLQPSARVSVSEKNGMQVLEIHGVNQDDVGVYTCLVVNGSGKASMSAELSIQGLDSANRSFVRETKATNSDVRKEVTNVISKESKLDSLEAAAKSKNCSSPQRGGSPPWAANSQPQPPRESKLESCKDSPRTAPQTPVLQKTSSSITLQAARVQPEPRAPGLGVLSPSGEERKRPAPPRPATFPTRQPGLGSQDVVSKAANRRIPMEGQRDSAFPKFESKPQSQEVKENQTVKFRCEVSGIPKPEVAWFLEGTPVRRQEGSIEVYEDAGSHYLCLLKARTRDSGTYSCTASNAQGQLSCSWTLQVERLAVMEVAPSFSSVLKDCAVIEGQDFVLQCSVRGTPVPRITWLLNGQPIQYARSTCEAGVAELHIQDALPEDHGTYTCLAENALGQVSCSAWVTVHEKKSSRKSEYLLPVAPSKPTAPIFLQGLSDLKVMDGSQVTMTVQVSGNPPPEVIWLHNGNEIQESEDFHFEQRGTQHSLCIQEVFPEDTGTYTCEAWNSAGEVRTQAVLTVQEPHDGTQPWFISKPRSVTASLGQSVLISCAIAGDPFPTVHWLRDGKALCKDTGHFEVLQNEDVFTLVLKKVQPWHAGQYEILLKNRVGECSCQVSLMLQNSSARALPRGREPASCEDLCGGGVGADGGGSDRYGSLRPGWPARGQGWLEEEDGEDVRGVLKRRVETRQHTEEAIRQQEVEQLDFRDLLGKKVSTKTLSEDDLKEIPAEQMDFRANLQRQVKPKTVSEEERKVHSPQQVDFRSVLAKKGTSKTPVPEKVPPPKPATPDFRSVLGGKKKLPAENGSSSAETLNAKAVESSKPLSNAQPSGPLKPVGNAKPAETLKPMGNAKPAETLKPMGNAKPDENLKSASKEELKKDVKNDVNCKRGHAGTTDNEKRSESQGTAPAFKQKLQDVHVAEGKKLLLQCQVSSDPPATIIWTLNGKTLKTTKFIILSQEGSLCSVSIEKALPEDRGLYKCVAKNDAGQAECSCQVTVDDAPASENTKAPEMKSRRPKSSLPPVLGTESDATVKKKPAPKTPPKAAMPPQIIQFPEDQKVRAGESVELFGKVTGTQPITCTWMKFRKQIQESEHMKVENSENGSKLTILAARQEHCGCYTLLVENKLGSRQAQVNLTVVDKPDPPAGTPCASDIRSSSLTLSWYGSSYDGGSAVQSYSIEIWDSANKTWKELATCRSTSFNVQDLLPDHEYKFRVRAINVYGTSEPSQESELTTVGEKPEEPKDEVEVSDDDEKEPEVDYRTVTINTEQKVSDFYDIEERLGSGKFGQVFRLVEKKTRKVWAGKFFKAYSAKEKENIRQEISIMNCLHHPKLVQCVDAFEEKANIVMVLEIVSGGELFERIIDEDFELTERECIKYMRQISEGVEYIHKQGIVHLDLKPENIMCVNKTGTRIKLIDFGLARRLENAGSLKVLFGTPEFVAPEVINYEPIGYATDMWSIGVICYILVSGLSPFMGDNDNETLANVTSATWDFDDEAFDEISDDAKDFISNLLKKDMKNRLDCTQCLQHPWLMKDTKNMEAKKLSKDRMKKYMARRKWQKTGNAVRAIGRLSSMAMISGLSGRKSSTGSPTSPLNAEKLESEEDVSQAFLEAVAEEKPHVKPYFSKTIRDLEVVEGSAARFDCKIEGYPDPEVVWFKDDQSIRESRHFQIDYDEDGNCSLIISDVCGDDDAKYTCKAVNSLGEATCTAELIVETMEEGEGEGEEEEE
Sequence of HIPK4 (human) (Q8NE63 whole entry, looked up): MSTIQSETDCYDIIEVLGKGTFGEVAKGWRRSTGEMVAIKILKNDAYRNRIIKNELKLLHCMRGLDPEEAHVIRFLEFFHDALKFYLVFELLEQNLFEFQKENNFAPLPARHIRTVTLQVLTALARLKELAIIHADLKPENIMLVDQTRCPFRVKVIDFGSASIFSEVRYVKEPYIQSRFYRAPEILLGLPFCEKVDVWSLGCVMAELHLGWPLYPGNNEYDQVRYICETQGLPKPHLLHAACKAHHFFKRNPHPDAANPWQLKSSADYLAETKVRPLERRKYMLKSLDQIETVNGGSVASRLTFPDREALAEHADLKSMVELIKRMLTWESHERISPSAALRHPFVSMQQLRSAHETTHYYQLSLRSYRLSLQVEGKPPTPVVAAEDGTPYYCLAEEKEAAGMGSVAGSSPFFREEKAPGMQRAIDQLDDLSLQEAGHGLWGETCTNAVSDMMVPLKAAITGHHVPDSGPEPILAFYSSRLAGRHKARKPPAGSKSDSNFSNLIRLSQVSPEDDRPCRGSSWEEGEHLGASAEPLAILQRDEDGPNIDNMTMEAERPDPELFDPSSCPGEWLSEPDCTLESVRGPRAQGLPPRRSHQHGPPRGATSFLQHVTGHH
Sequence of NUAK2 (human) (Q9H093 whole entry, looked up): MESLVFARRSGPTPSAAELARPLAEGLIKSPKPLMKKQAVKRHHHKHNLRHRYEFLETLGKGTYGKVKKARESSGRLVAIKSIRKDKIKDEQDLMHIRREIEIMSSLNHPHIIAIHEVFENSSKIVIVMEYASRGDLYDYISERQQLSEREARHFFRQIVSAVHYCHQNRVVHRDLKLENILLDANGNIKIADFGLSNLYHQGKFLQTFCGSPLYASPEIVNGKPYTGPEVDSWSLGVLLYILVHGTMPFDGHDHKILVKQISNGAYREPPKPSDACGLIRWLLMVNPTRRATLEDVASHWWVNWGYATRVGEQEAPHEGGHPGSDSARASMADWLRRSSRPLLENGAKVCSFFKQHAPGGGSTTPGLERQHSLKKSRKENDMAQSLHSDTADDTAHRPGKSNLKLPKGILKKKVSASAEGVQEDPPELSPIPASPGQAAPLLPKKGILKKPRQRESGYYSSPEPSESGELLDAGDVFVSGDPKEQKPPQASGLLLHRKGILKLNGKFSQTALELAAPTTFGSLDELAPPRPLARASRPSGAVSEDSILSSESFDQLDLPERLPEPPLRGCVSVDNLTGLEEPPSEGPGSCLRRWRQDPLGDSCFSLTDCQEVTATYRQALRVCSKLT
Sequence of VRK1 (human) (Q99986 whole entry, looked up): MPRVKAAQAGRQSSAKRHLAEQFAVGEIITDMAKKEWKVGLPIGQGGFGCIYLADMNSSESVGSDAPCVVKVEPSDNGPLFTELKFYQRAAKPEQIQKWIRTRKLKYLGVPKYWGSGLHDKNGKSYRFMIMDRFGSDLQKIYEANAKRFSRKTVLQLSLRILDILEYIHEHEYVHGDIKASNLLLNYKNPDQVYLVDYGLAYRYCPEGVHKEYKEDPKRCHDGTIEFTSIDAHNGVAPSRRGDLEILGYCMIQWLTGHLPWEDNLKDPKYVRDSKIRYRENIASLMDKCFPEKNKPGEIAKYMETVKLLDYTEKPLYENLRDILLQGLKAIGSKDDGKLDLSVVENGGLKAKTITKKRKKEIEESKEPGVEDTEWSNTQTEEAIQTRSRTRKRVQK
Sequence of NLK (human) (Q9UBE8 whole entry, looked up): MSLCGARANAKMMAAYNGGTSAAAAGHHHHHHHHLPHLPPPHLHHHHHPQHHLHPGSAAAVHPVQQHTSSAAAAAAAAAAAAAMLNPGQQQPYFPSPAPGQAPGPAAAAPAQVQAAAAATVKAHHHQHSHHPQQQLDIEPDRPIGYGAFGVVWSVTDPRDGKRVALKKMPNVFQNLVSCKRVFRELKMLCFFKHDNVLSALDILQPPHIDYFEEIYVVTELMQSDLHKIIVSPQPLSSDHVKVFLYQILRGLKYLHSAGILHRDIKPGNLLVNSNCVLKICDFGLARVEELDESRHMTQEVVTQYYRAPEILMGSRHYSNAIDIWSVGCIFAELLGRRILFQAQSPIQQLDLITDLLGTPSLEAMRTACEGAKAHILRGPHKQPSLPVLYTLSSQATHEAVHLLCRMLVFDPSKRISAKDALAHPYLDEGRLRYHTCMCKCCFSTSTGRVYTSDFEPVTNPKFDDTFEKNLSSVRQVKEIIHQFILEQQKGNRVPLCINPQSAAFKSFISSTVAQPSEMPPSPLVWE
Sequence of ZAP70 (human) (P43403 whole entry, looked up): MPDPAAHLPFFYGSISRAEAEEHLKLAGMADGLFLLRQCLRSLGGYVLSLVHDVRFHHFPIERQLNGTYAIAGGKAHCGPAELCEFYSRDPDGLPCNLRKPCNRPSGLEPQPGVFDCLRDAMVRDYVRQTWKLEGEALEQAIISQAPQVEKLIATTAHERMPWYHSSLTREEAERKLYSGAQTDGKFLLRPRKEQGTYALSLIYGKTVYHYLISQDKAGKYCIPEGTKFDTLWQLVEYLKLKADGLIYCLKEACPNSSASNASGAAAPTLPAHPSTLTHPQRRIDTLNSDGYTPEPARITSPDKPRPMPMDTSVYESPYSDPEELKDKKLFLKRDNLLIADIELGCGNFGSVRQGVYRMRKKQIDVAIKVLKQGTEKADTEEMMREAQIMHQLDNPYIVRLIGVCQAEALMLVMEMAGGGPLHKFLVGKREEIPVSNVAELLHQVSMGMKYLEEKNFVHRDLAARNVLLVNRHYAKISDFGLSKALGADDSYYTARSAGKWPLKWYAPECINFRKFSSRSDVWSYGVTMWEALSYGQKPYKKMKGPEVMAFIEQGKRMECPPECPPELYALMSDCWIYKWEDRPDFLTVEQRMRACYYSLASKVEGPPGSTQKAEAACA
Sequence of PIM1 (human) (P11309 whole entry, looked up): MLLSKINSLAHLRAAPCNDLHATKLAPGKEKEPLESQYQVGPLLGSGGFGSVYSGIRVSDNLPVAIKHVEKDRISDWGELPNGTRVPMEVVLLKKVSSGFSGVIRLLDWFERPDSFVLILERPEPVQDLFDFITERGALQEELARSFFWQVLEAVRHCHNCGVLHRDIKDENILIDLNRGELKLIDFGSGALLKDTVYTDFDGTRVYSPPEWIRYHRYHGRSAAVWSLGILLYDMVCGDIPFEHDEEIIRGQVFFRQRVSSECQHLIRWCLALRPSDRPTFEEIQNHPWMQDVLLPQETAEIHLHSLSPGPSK

Structure (SMILES) | residual activity (PAK6 (human)) [%] | residual activity (RPS6KA3 KD1 KD2 (human)) [%] | residual activity (KIT (human)) [%] | residual activity (GRK7 (human)) [%] | residual activity (MELK (human)) [%] | residual activity (DMPK (human)) [%] | residual activity (MATK (human)) [%] | residual activity (ALK (human)) [%] | residual activity (VRK1 (human)) [%] | residual activity (ZAP70 (human)) [%] | residual activity (HIPK4 (human)) [%] | residual activity (CDK6 CCND3 (human)) [%] | residual activity (EGFR (human)) [%] | residual activity (NUAK2 (human)) [%] | residual activity (MKNK2 (human)) [%] | residual activity (TAOK3 (human)) [%] | residual activity (AURKB (human)) [%] | residual activity (SRPK2 (human)) [%] | residual activity (CDK6 CCND1 (human)) [%] | residual activity (STK17A (human)) [%] | also measured
CC(=O)c1ccc(N2CCOCC2)cc1O | 93.7 | 101 | 102 | 100 | 102 | 105 | 92.1 | 106 | 98.1 | 99.5 | 101 | 97.4 | 97.4 | 104 | 90.7 | 98.4 | 91.4 | 98.6 | 99.3 | 95.9 | residual activity (TXK (human)): 103%; residual activity (CAMK2A (human)): 104%; residual activity (MAPK14 (human)): 97.1%; residual activity (PIM1 (human)): 97.2%; residual activity (AXL (human)): 96.3%; residual activity (MYLK (human)): 91.1%; residual activity (STK3 (human)): 98.9%; residual activity (PAK4 (human)): 103%; residual activity (PHKG2 (human)): 98.1%; residual activity (CHEK2 (human)): 104%; residual activity (DYRK2 (human)): 101%; residual activity (EPHA4 (human)): 101%; residual activity (CDC42BPA (human)): 100%; residual activity (NLK (human)): 95.6%; residual activity (GSG2 (human)): 79.6%; residual activity (BTK (human)): 108%; residual activity (RPS6KB2 (human)): 101%; residual activity (PKN2 (human)): 94.8%; residual activity (ULK1 (human)): 94.8%; residual activity (CLK2 (human)): 102%
CO[C@H]1CC2CC[C@@H](C)[C@@](O)(O2)C(=O)C(=O)N2CCCC[C@H]2C(=O)OC([C@H](C)C[C@@H]2CC[C@@H](O)[C@H](OC)C2)CC(=O)[C@H](C)/C=C(\C)[C@@H](O)[C@@H](OC)C(=O)[C@H](C)C[C@H](C)/C=C/C=C/C=C/1C (stereo not given in full) | 112 | 105 | 95.7 | 98 | 97.8 | 109 | 92 | 115 | 108 | 99.2 | 92.9 | 105 | 93.3 | 140 | 88.1 | 106 | 95.2 | 104 | 99.8 | 95.9 | residual activity (TXK (human)): 105%; residual activity (CAMK2A (human)): 105%; residual activity (MAPK14 (human)): 99.1%; residual activity (PIM1 (human)): 104%; residual activity (AXL (human)): 99.5%; residual activity (MYLK (human)): 102%; residual activity (STK3 (human)): 105%; residual activity (PAK4 (human)): 97.1%; residual activity (PHKG2 (human)): 108%; residual activity (CHEK2 (human)): 99%; residual activity (DYRK2 (human)): 100%; residual activity (EPHA4 (human)): 115%; residual activity (CDC42BPA (human)): 95.6%; residual activity (NLK (human)): 97.3%; residual activity (GSG2 (human)): 103%; residual activity (BTK (human)): 101%; residual activity (RPS6KB2 (human)): 95.4%; residual activity (PKN2 (human)): 89.8%; residual activity (ULK1 (human)): 87.9%; residual activity (CLK2 (human)): 102%
Cc1ccc(Nc2nccc(N(C)c3ccc4c(C)n(C)nc4c3)n2)cc1S(N)(=O)=O | 105 | 99.1 | 10.9 | 96.5 | 87.5 | 93.5 | 104 | 85.3 | 100 | 92.6 | 109 | 96.1 | 91 | 93.8 | 107 | 55.5 | 64.6 | 104 | 96.5 | 95.9 | residual activity (TXK (human)): 40.2%; residual activity (CAMK2A (human)): 95.6%; residual activity (MAPK14 (human)): 91.2%; residual activity (PIM1 (human)): 100%; residual activity (AXL (human)): 78.1%; residual activity (MYLK (human)): 93%; residual activity (STK3 (human)): 95.4%; residual activity (PAK4 (human)): 92%; residual activity (PHKG2 (human)): 96.7%; residual activity (CHEK2 (human)): 95.1%; residual activity (DYRK2 (human)): 98.8%; residual activity (EPHA4 (human)): 94.5%; residual activity (CDC42BPA (human)): 85.4%; residual activity (NLK (human)): 69%; residual activity (GSG2 (human)): 90.4%; residual activity (BTK (human)): 78.8%; residual activity (RPS6KB2 (human)): 103%; residual activity (PKN2 (human)): 106%; residual activity (ULK1 (human)): 97.3%; residual activity (CLK2 (human)): 90.9%
O=C1NC(=O)C(c2cn(CCCn3ccnc3)c3ccccc23)=C1Nc1ccccc1 | 105 | 3.85 | 90.2 | 86.3 | 101 | 104 | 89.8 | 97.7 | 98.7 | 104 | 90.7 | 104 | 95.1 | 113 | 87.2 | 76.5 | 95.4 | 96.2 | 83.1 | 93.1 | residual activity (TXK (human)): 95.3%; residual activity (CAMK2A (human)): 95.5%; residual activity (MAPK14 (human)): 88.3%; residual activity (PIM1 (human)): 79.1%; residual activity (AXL (human)): 98.8%; residual activity (MYLK (human)): 81.6%; residual activity (STK3 (human)): 52%; residual activity (PAK4 (human)): 97.8%; residual activity (PHKG2 (human)): 107%; residual activity (CHEK2 (human)): 88.3%; residual activity (DYRK2 (human)): 97.3%; residual activity (EPHA4 (human)): 111%; residual activity (CDC42BPA (human)): 95.2%; residual activity (NLK (human)): 97%; residual activity (GSG2 (human)): 95.8%; residual activity (BTK (human)): 105%; residual activity (RPS6KB2 (human)): 86.1%; residual activity (PKN2 (human)): 76.9%; residual activity (ULK1 (human)): 90.1%; residual activity (CLK2 (human)): 14.7%
O=c1cc(N2CCOCC2)oc2c1ccc1ccccc12 | 92 | 103 | 105 | 107 | 103 | 105 | 90.7 | 104 | 93.3 | 103 | 101 | 95.1 | 96.2 | 120 | 88.5 | 98.7 | 97.6 | 100 | 102 | 94.6 | residual activity (TXK (human)): 98.9%; residual activity (CAMK2A (human)): 99.4%; residual activity (MAPK14 (human)): 96.7%; residual activity (PIM1 (human)): 54.8%; residual activity (AXL (human)): 98.1%; residual activity (MYLK (human)): 92.3%; residual activity (STK3 (human)): 99.1%; residual activity (PAK4 (human)): 108%; residual activity (PHKG2 (human)): 99.8%; residual activity (CHEK2 (human)): 104%; residual activity (DYRK2 (human)): 88.9%; residual activity (EPHA4 (human)): 94.4%; residual activity (CDC42BPA (human)): 87.6%; residual activity (NLK (human)): 103%; residual activity (GSG2 (human)): 85.6%; residual activity (BTK (human)): 112%; residual activity (RPS6KB2 (human)): 99.6%; residual activity (PKN2 (human)): 93.2%; residual activity (ULK1 (human)): 96.1%; residual activity (CLK2 (human)): 101%
